System: tobacco budworm (Heliothis virescens [Fabricius])
Test: surface-treated diet test, insecticidal activity against tobacco budworm
Type: in vivo
Set-up: mortality: concentration or dose not given beside the values
Details: 0.25 millimoles of candidate insecticide on the surface of the diet, second instar larvae, five-day exposure; for Percent Mortality / mortality: compared to total number of insects infested; for Percent Growth Inhibition / pest or weed control at 0.25 mmol/well: inhibition of insect weight relative to untreated controls; for mortality / pest or weed control at 0.25 mmol/well: Heliothis virescens, 120 h; for mortality: read-out: Percent Mortality; for pest or weed control at 0.25 mmol/well: read-out: Percent Growth Inhibition
In short: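 Second-instar larvae (~5 mg) were held five days at 25° C and 60% RH on artificial diet whose surface carried dried compound (0.25 millimolar standard rate; DMSO serial dilutions for rate series, six replicates each). Readouts: mortality and weight inhibition relative to DMSO-treated controls.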

SMILES	Percent Mortality	Percent Growth Inhibition	mortality	pest or weed control at 0.25 mmol/well
OC1(C(c2ccc(OC(F)(F)F)cc2)c2ccc(OC(F)(F)F)cc2)CCN(Cc2ccc(Oc3cccc(Cl)c3)cc2)CC1 [Compound 286]	100%	100%	–	–
OC1(C(c2ccc(OC(F)(F)F)cc2)c2ccc(OC(F)(F)F)cc2)CCN(CCCCOc2ccc(Cl)cc2)CC1 [Compound 476]	67%	100%	–	–
[O-][N+]1(Cc2ccc(Oc3ccccc3Cl)cc2)CCC(O)(C(c2ccc(OC(F)(F)F)cc2)c2ccc(OC(F)(F)F)cc2)CC1 (stereo not drawn) [Compound 375]	100%	100%	–	–
CCCCC(CC)C(=O)[O-].OC1(C(c2ccc(OC(F)(F)F)cc2)c2ccc(OC(F)(F)F)cc2)CC[N+](O)(Cc2ccc(Oc3ccc(Cl)nn3)cc2)CC1 (stereo not drawn) [Compound 485]	100%	100%	–	–
O=C(NC1CC1)Oc1ccc(CN2CCC(O)(C(c3ccc(OC(F)(F)F)cc3)c3ccc(OC(F)(F)F)cc3)CC2)cc1 [Compound 298]	100%	100%	–	–
OC1(C(c2ccc(OC(F)(F)F)cc2)c2ccc(OC(F)(F)F)cc2)CCN(Cc2ccc(Oc3ncccn3)cc2)CC1 [Compound 19, 4-{bis[4-(trifluoromethoxy)phenyl]methyl}-1-[(4-pyrimidin-2-yloxyphenyl)methyl]piperidin-4-ol]	–	–	100%	100%
CCCOC(=O)Nc1ccc(CN2CCC(O)(C(c3ccc(OC(F)(F)F)cc3)c3ccc(OC(F)(F)F)cc3)CC2)cc1 [Compound 310]	100%	100%	–	–
CCOC(=O)C1(C(Cl)(c2ccc(C(F)(F)F)cc2)c2ccc(C(F)(F)F)cc2)CCN(Cc2ccc(Oc3ccccn3)cc2)CC1 [Compound 195, ethyl 4-{bis[4-(trifluoromethyl)phenyl]chloromethyl}-1-[(4-(2-pyridyloxy)phenyl)methyl]piperidine-4-carboxylate]	–	–	100%	100%
OC1(C(c2cc(F)cc(F)c2)c2cc(F)cc(F)c2)CCN(Cc2ccc(Oc3ncccn3)cc2)CC1 [Compound 10]	0%	50%	–	–
CONC(=O)c1ccc(CN2CCC(O)(C(c3ccc(OC(F)(F)F)cc3)c3ccc(OC(F)(F)F)cc3)CC2)cc1 [Compound 285]	100%	100%	–	–
OC1(C(c2ccc(C(F)(F)F)cc2)c2ccc(Cl)c(Cl)c2)CCN(Cc2ccc(Oc3ncccn3)cc2)CC1 (stereo not drawn) [Compound 9]	100%	100%	–	–
CCCCCCCC/C=C/CCCCCCCC(=O)[O-].OC1(C(c2ccc(OC(F)(F)F)cc2)c2ccc(OC(F)(F)F)cc2)CC[N+](O)(Cc2ccc(Oc3ccccn3)cc2)CC1 (stereo not drawn) [Compound 513]	100%	100%	–	–
COCCOc1ccc(C[N+]2([O-])CCC(O)(C(c3ccc(OC(F)(F)F)cc3)c3ccc(OC(F)(F)F)cc3)CC2)cc1 (stereo not drawn) [Compound 385, 4-{bis[4-(trifluoromethoxy)phenyl]methyl}-4-hydroxy-1-{[4-(2-methoxyethoxy)phenyl]methyl}piperidin-1-oxide]	–	–	100%	100%
Cc1ccc(Oc2ccc(CN3CCC(O)(C(c4ccc(OC(F)(F)F)cc4)c4ccc(OC(F)(F)F)cc4)CC3)cc2)nn1 [Compound 255]	100%	100%	–	–
OC1(C(c2ccc(OC(F)(F)F)cc2)c2ccc(OC(F)(F)F)cc2)CCN(Cc2ccc(Oc3ncccc3Cl)cc2)CC1 [Compound 322]	100%	100%	–	–
COc1cc(C[N+]2([O-])CCC(O)(C(c3ccc(OC(F)(F)F)cc3)c3ccc(OC(F)(F)F)cc3)CC2)ccc1Oc1ccccn1 (stereo not drawn) [Compound 465]	100%	100%	–	–
[O-][N+]1(Cc2ccc(C3OCCO3)cc2)CCC(O)(C(c2ccc(C(F)(F)F)cc2)c2ccc(C(F)(F)F)cc2)CC1 (stereo not drawn) [Compound 342]	100%	100%	–	–
COCCOCCON=Cc1ccc(C[N+]2([O-])CCC(O)(C(c3ccc(OC(F)(F)F)cc3)c3ccc(OC(F)(F)F)cc3)CC2)cc1 (stereo not drawn) [Compound 336]	100%	100%	–	–
OC1(C(c2ccc(C(F)(F)F)cc2)c2cc(F)cc(F)c2)CCN(Cc2ccc(Oc3ncccn3)cc2)CC1 (stereo not drawn) [Compound 11]	33%	100%	–	–
OC(c1ccc(Cl)cc1)c1ccc(CN2CCC(O)(C(c3ccc(OC(F)(F)F)cc3)c3ccc(OC(F)(F)F)cc3)CC2)cc1 (racemic) [Compound 278]	100%	100%	–	–
Cl.OC1(C(c2ccc(OC(F)(F)F)cc2)c2ccc(OC(F)(F)F)cc2)CCN(Cc2ccc(Oc3ccccn3)cc2)CC1 [Compound 522]	100%	100%	–	–

SMILES	Percent Mortality	Percent Growth Inhibition	mortality	pest or weed control at 0.25 mmol/well
OC1(C(c2ccc(C(F)(F)F)cc2)c2ccc(C(F)(F)F)cc2)CCN(Cc2ccc(Oc3ncccn3)cc2)CC1 [Compound 16]	100%	100%	–	–
OC1(C(c2ccc(OC(F)(F)F)cc2)c2ccc(OC(F)(F)F)cc2)CCN(Cc2ccc(OCC=C(Cl)Cl)cc2)CC1 [Compound 293]	100%	100%	–	–
OC1(C(c2ccc(OC(F)(F)F)cc2)c2cccc(Cl)c2Cl)CCN(Cc2ccc(Oc3ccccn3)cc2)CC1 (stereo not drawn) [Compound 438]	100%	100%	–	–
O=C(NC1CCCC1)Oc1ccc(CN2CCC(O)(C(c3ccc(OC(F)(F)F)cc3)c3ccc(OC(F)(F)F)cc3)CC2)cc1 [Compound 320]	100%	100%	–	–
CC1(C)[C@H]2CCC1(CS(=O)(=O)[O-])C(=O)C2.OC1(C(c2ccc(OC(F)(F)F)cc2)c2ccc(OC(F)(F)F)cc2)CC[N+](O)(Cc2ccc(Oc3ccccn3)cc2)CC1 (stereo not drawn) [Compound 498]	100%	100%	–	–
CCCOc1ccc(CN2CCC(O)(C(O)(c3ccc(C(F)(F)F)cc3)c3ccc(C(F)(F)F)cc3)CC2)cc1 [Compound 92]	100%	100%	–	–
Cc1ccc(Oc2ccc(C[N+]3([O-])CCC(O)(C(c4ccc(OC(F)(F)F)cc4)c4ccc(OC(F)(F)F)cc4)CC3)cc2)nc1 (stereo not drawn) [Compound 350]	100%	100%	–	–
OC1(C(c2ccc(OC(F)(F)F)cc2)c2ccc(OC(F)(F)F)cc2)CCN(Cc2ccc(Oc3ccc(Cl)cc3)cc2)CC1 [Compound 290]	100%	100%	–	–
CCON=Cc1ccc(C[N+]2(O)CCC(O)(C(c3ccc(OC(F)(F)F)cc3)c3ccc(OC(F)(F)F)cc3)CC2)cc1.O=S(=O)([O-])C(F)(F)C(F)(F)C(F)(F)C(F)(F)F (stereo not drawn) [Compound 487]	100%	100%	–	–
OC1(C(c2ccc(C(F)(F)F)cc2)c2ccc(C(F)(F)F)cc2)CCN(Cc2ccc(OCC3CC3)cc2)CC1 [Compound 299]	100%	100%	–	–
OCC1(C(c2ccc(C(F)(F)F)cc2)c2ccc(C(F)(F)F)cc2)CCN(Cc2ccc(Oc3ncccn3)cc2)CC1 [Compound 448]	0%	96%	–	–
[O-][N+]1(CCCCOc2ccc(Cl)cc2)CCC(O)(C(c2ccc(OC(F)(F)F)cc2)c2ccc(OC(F)(F)F)cc2)CC1 (stereo not drawn) [Compound 480]	100%	100%	–	–
CC1(C)COC(c2ccc(C[N+]3([O-])CCC(O)(C(c4ccc(OC(F)(F)F)cc4)c4ccc(OC(F)(F)F)cc4)CC3)cc2)OC1 (stereo not drawn) [Compound 358]	100%	100%	–	–
[O-][N+]1(Cc2ccc(Oc3ccccn3)cc2)CCC(O)(C(c2ccc(OC(F)(F)F)cc2)c2ccc(Cl)c(Cl)c2)CC1 (stereo not drawn) [Compound 455]	100%	100%	–	–
CCn1nnc(-c2ccc(CN3CCC(O)(C(c4ccc(Cl)cc4)c4ccc(Cl)cc4)CC3)cc2)n1 [Compound 23]	100%	100%	–	–
COCCOc1ccc(CN2CCC(O)(C(c3ccc(OC(F)(F)F)cc3)c3ccc(OC(F)(F)F)cc3)CC2)cc1 [Compound 308, 4-{bis[4-(trifluoromethoxy)phenyl]methyl}-1-{[4-(2-methoxyethoxy)phenyl]methyl}piperidin-4-ol]	–	–	100%	100%
OC1(C(c2ccccc2Cl)c2ccccc2Cl)CCN(Cc2ccc(Oc3ncccn3)cc2)CC1 [Compound 1]	0%	57%	–	–
OC1(C(c2ccc(C(F)(F)F)cc2)c2cc(Cl)ccc2Cl)CCN(Cc2ccc(Oc3ncccn3)cc2)CC1 (stereo not drawn) [Compound 13]	100%	100%	–	–
OC1(C(c2ccc(OC(F)(F)F)cc2)c2ccc(Cl)c(Cl)c2)CCN(Cc2ccc(Oc3ccccn3)cc2)CC1 (stereo not drawn) [Compound 441]	100%	100%	–	–
CCCCCCCC(=O)[O-].OC1(C(c2ccc(OC(F)(F)F)cc2)c2ccc(OC(F)(F)F)cc2)CC[N+](O)(Cc2ccc(Oc3ccccn3)cc2)CC1 (stereo not drawn) [Compound 517]	100%	100%	–	–
Cc1cc(C(c2ccc(OC(F)(F)F)cc2)C2(O)CC[N+]([O-])(Cc3ccc(Oc4ccccn4)cc3)CC2)ccc1Cl (stereo not drawn) [Compound 462]	100%	100%	–	–
